Results published in US6875422B2, “Oral treatment/care agent” (priority 2000, dated 2005).

Settings: used alone
Experimental: Here, a complete cure was determined by comparing the configuration and properties (hardness and color, in clinical practice) of the periodontium, mobility of the teeth, depth of pockets, hemorrhaging, pus discharge, effusion, bacterial flora within the pocket and the like, against those of a normal person (excepting any dramatic periodontial regeneration such as dramatic bone growth relative to the normal person through this medication alone).

## C[C@@H]1[C@H](O)[C@@H](C)/C=C/C=C/C=C/C=C/C=C/C=C/C=C/[C@H](O[C@@H]2O[C@H](C)[C@@H](O)[C@H](N)[C@@H]2O)C[C@@H]2O[C@](O)(C[C@@H](O)C[C@@H](O)[C@H](O)CC[C@@H](O)C[C@@H](O)CC(=O)O[C@H]1C)C[C@H](O)[C@H]2C(=O)O [amphotericin, amphotericin B]
  occurrences on use alone: annual-term occurrences
